Each structure is given as a SMILES string. A value given as a limit tells only on which side of the number the result lay.

The subject of this test is Endogenous Huntingtin Protein. Put plainly: Endogenous Huntingtin Protein Assay (Meso Scale Discovery ELISA-based electrochemiluminescence). Format: cell-based. As to conditions: MSD electrochemiluminescence, Table 1. A digest of the protocol:
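MSD electrochemiluminescence sandwich ELISA: MW1 (expanded polyQ) or MAB2166 capture antibody at 1 μg/mL, samples incubated overnight at 4° C. Detection with rabbit monoclonal #5656S then SULFO-TAG anti-rabbit antibody, each 0.25 μg/mL for 1 h at room temperature.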
Background: ELISA stands for enzyme-linked immunosorbent assay.
Compound `Cc1cc(-c2ccc3nc(C4CCNCC4)nnc3c2)cc2cn(C)nc12` [Compound 16, 7-(2,7-dimethyl-2H-indazol-5-yl)-3-(piperidin-4-yl)-1,2,4-benzotriazine] registered a concentration for half-maximal inhibition (IC50) of 100 to 500 nM.

On to `COc1cc(-c2cc(F)c3cc(C4CCNCC4)nnc3c2)nn2cc(C)nc12` [Compound 106, 5-fluoro-7-(8-methoxy-2-methylimidazo[1,2-b]pyridazin-6-yl)-3-(piperidin-4-yl)cinnoline], for which the IC50 is at most 100 nM.

Turning to `Cc1cn2nc(-c3cc(F)c4cc(C5CCNCC5)nnc4c3)cc(OCCN(C)C)c2n1` [Compound 138, 2-({6-[5-fluoro-3-(piperidin-4-yl)cinnolin-7-yl]-2-methylimidazo[1,2-b]pyridazin-8-yl}oxy)-N,N-dimethylethan-1-amine], the half-inhibitory concentration (IC50) was 100 to 500 nM.

`Cc1cn2cc(-c3cc4c(F)cc(C5CCNCC5)cc4nn3)cc(F)c2n1` [Compound 128, 5-fluoro-3-(8-fluoro-2-methylimidazo[1,2-a]pyridin-6-yl)-7-(piperidin-4-yl)cinnoline]: the IC50 was at most 100 nM.

On to `Cc1cn2nc(-c3cc(F)c4cc(N5CC6(CCNCC6)C5)nnc4c3)cc(C)c2n1` [Compound 221, 3-(2,7-diazaspiro[3.5]nonan-2-yl)-7-(2,8-dimethylimidazo[1,2-b]pyridazin-6-yl)-5-fluorocinnoline], for which the IC50 is at most 100 nM.

The compound `Cn1nc2cc(-c3cc4c(F)cc(C5=CCNCC5)cc4nn3)cc(F)c2n1` [Compound 171, 5-fluoro-3-(7-fluoro-2-methyl-2H-benzotriazol-5-yl)-7-(1,2,3,6-tetrahydropyridin-4-yl)cinnoline] had an IC50 of at most 100 nM.

The compound `Cc1cn2cc(-c3cc(F)c4cc(C5CCNCC5)nnc4c3)cc(C#N)c2n1` [Compound 93, 6-[5-fluoro-3-(piperidin-4-yl)cinnolin-7-yl]-2-methylimidazo[1,2-a]pyridine-8-carbonitrile] registered an IC50 of at most 100 nM.

For the compound `Cc1cn2nc(-c3cc(F)c4cc(C5CCN(CC(F)F)CC5)nnc4c3)cc(C)c2n1` [Compound 98, 3-[1-(2,2-difluoroethyl)piperidin-4-yl]-7-(2,8-dimethylimidazo[1,2-b]pyridazin-6-yl)-5-fluorocinnoline], the concentration for half-maximal inhibition (IC50) lay within 100 to 500 nM.

Consider `Cc1cc2nc(-c3cc(F)c4cc(C5CCNCC5)nnc4c3)sc2c(C)n1` [Compound 196, 7-(4,6-dimethyl[1,3]thiazolo[5,4-c]pyridin-2-yl)-5-fluoro-3-(piperidin-4-yl)cinnoline], for which the IC50 was at most 100 nM.

Take `Cc1cn2nc(-c3nnc4cc(C5CCNCC5)ccc4n3)cc(C)c2n1` [Compound 44, 3-(2,8-dimethylimidazo[1,2-b]pyridazin-6-yl)-7-(piperidin-4-yl)-1,2,4-benzotriazine]: the IC50 fell in the range of 100 to 500 nM.

The compound `Cc1cn2nc(-c3cc(F)c4cc(C5CCNCC5)nnc4c3)cc(C3CC3)c2n1` [Compound 112, 7-(8-cyclopropyl-2-methylimidazo[1,2-b]pyridazin-6-yl)-5-fluoro-3-(piperidin-4-yl)cinnoline] had an IC50 of at most 100 nM.

Consider `Cc1cc(-c2ccc3nc(C4CCNCC4)ncc3c2)cc2cn(C)nc12` [Compound 23, 6-(2,7-dimethyl-2H-indazol-5-yl)-2-(piperidin-4-yl)quinazoline], for which the IC50 lay in the range of 100 to 500 nM.

`CCCc1cc(-c2cc(F)c3cc(C4CCNCC4)nnc3c2)nn2cc(C)nc12` [Compound 204, 5-fluoro-7-(2-methyl-8-propylimidazo[1,2-b]pyridazin-6-yl)-3-(piperidin-4-yl)cinnoline] showed an IC50 of at most 100 nM.

For `Cc1cn2cc(-c3cc(F)c4cc(C5CCNCC5)nnc4c3)cc2c(C)n1` [Compound 101, 7-(1,3-dimethylpyrrolo[1,2-a]pyrazin-7-yl)-5-fluoro-3-(piperidin-4-yl)cinnoline], the IC50 is at most 100 nM.

In turn, `CCN1CCC(c2cc3c(F)cc(-c4cc(C(C)C)c5nc(C)cn5n4)cc3nn2)CC1` [Compound 222, 3-(1-ethylpiperidin-4-yl)-5-fluoro-7-[2-methyl-8-(propan-2-yl)imidazo[1,2-b]pyridazin-6-yl]cinnoline] yielded an IC50 of 100 to 500 nM.

As for `Cc1cn2nc(-c3cc(F)c4cc(C5C[C@@H](C)N[C@@H](C)C5)nnc4c3)cc(C)c2n1` (stereo partly drawn) [Compound 90, 7-(2,8-dimethylimidazo[1,2-b]pyridazin-6-yl)-3-[(2R,4r,6S)-2,6-dimethylpiperidin-4-yl]-5-fluorocinnoline], the IC50 was at most 100 nM.

For the compound `Cc1cn2nc(-c3cc(F)c4nc(C5CCNCC5)ccc4c3)cc(C)c2n1` [Compound 45, 6-(2,8-dimethylimidazo[1,2-b]pyridazin-6-yl)-8-fluoro-2-(piperidin-4-yl)quinoline], the IC50 is at most 100 nM.

`Cc1cn2cc(-c3cc4c(F)cc(C5=CCNCC5)cc4nn3)cc(F)c2n1` [Compound 117, 5-fluoro-3-(8-fluoro-2-methylimidazo[1,2-a]pyridin-6-yl)-7-(1,2,3,6-tetrahydropyridin-4-yl)cinnoline] yielded an IC50 of at most 100 nM.

The compound `Cc1cn2nc(-c3cc(F)c4cc(C5C[C@@H](C)N(CCF)[C@@H](C)C5)nnc4c3)cc(C)c2n1` (stereo partly drawn) [Compound 170, 7-(2,8-dimethylimidazo[1,2-b]pyridazin-6-yl)-5-fluoro-3-[(2R,6S)-1-(2-fluoroethyl)-2,6-dimethylpiperidin-4-yl]cinnoline] had an IC50 of 100 to 500 nM.

For the compound `Cc1cc(-c2ccc3nc(C4CCNCC4)ncc3c2F)cc2cn(C)nc12` [Compound 38, 6-(2,7-dimethyl-2H-indazol-5-yl)-5-fluoro-2-(piperidin-4-yl)quinazoline], the IC50 was 1000 to 3000 nM.

On to `Cc1nc(-c2cc(F)c3nc(C4CCNCC4)nnc3c2)cc2cn(C)nc12` [Compound 67, 7-(2,7-dimethyl-2H-pyrazolo[3,4-c]pyridin-5-yl)-5-fluoro-3-(piperidin-4-yl)-1,2,4-benzotriazine], for which the half-maximal inhibitory concentration (IC50) fell in the range of 100 to 500 nM.

`Cc1cc2cc(-c3cc(F)c4cc(C5CCNCC5)nnc4c3)oc2c(C)n1` [Compound 146, 7-(5,7-dimethylfuro[2,3-c]pyridin-2-yl)-5-fluoro-3-(piperidin-4-yl)cinnoline] returned an IC50 of at most 100 nM.

The compound `Cc1cn2nc(-c3cc(F)c4cc(N5CCC(N(C)C)CC5)nnc4c3)cc(C)c2n1` [Compound 88, 1-[7-(2,8-dimethylimidazo[1,2-b]pyridazin-6-yl)-5-fluorocinnolin-3-yl]-N,N-dimethylpiperidin-4-amine] yielded an IC50 of at most 100 nM.

As for `CN(c1ccc2cc(-c3ccc4nn(C)cc4c3)ccc2n1)C1CC(C)(C)NC(C)(C)C1` [Compound 12, N-methyl-6-(2-methyl-2H-indazol-5-yl)-N-(2,2,6,6-tetramethylpiperidin-4-yl)quinolin-2-amine], the IC50 fell in the range of 500 to 1000 nM.

The compound `Cc1cn2nc(-c3cc(F)c4cc(C5CCN(CCF)CC5)nnc4c3)cc(CO)c2n1` [Compound 182, (6-{5-fluoro-3-[1-(2-fluoroethyl)piperidin-4-yl]cinnolin-7-yl}-2-methylimidazo[1,2-b]pyridazin-8-yl)methanol] showed an IC50 of at most 100 nM.

Turning to `Cc1cn2nc(-c3cc(F)c4cc(C5CCN(C)CC5)nnc4c3)cc(C)c2n1` [Compound 79, 7-(2,8-dimethylimidazo[1,2-b]pyridazin-6-yl)-5-fluoro-3-(1-methylpiperidin-4-yl)cinnoline], the IC50 is at most 100 nM.

In the case of `Cc1cc(-c2nnc3cc(C4CCNCC4)ccc3n2)cc2cn(C)nc12` [Compound 17, 3-(2,7-dimethyl-2H-indazol-5-yl)-7-(piperidin-4-yl)-1,2,4-benzotriazine], the IC50 was at most 100 nM.

On to `Cc1cc(-c2cc(F)c3cc(C4CCNCC4)nnc3c2)cc2cn(C)nc12` [Compound 73, 7-(2,7-dimethyl-2H-indazol-5-yl)-5-fluoro-3-(piperidin-4-yl)cinnoline], for which the IC50 was at most 100 nM.

The compound `CCN1CCC(c2cc3c(F)cc(-c4cc(C)c5nc(C)cn5n4)cc3nn2)CC1` [Compound 76, 7-(2,8-dimethylimidazo[1,2-b]pyridazin-6-yl)-3-(1-ethylpiperidin-4-yl)-5-fluorocinnoline] returned a half-maximal inhibitory concentration (IC50) of at most 100 nM.

`Cc1cn2cc(-c3nnc4cc(C5CCNCC5)ccc4n3)cc(C)c2n1` [Compound 27, 3-(2,8-dimethylimidazo[1,2-a]pyridin-6-yl)-7-(piperidin-4-yl)-1,2,4-benzotriazine] displayed an IC50 of 100 to 500 nM.

The compound `Cn1cc2cc(-c3nnc4cc(C5CCNCC5)ccc4n3)cc(F)c2n1` [Compound 25, 3-(7-fluoro-2-methyl-2H-indazol-5-yl)-7-(piperidin-4-yl)-1,2,4-benzotriazine] showed an IC50 of at most 100 nM.

The compound `Cc1cn2nc(-c3cc(F)c4cc(C5CCNCC5)nnc4c3)cc(OCCCn3cccn3)c2n1` [Compound 141, 5-fluoro-7-{2-methyl-8-[3-(1H-pyrazol-1-yl)propoxy]imidazo[1,2-b]pyridazin-6-yl}-3-(piperidin-4-yl)cinnoline] returned an IC50 of at most 100 nM.

`Cc1cn2nc(-c3cc(F)c4cc(N5CCC(C)(N(C)C)CC5)nnc4c3)cc(C)c2n1` [Compound 224, 1-[7-(2,8-dimethylimidazo[1,2-b]pyridazin-6-yl)-5-fluorocinnolin-3-yl]-N,N,4-trimethylpiperidin-4-amine]: the IC50 was at most 100 nM.

The compound `Cn1cc2cc(-c3cc(F)c4nc(C5CCNCC5)ncc4c3)cc(C#N)c2n1` [Compound 35, 5-[8-fluoro-2-(piperidin-4-yl)quinazolin-6-yl]-2-methyl-2H-indazole-7-carbonitrile] displayed an IC50 of at most 100 nM.

`CCN1CCC(c2cc3c(F)cc(-c4cc(C)c5nn(C)cc5n4)cc3nn2)CC1` [Compound 164, 7-(2,7-dimethyl-2H-pyrazolo[4,3-b]pyridin-5-yl)-3-(1-ethylpiperidin-4-yl)-5-fluorocinnoline] returned an IC50 of at most 100 nM.

In turn, `COc1cc(-c2cc(F)c3nc(C4CCNCC4)ccc3c2)cc2cn(C)nc12` [Compound 49, 8-fluoro-6-(7-methoxy-2-methyl-2H-indazol-5-yl)-2-(piperidin-4-yl)quinoline] registered a half-maximal inhibitory concentration (IC50) of at most 100 nM.

Take `Cc1cc(-c2ccc3nc(C4CCNCC4)ccc3c2)cc2cn(C)nc12` [Compound 15, 6-(2,7-dimethyl-2H-indazol-5-yl)-2-(piperidin-4-yl)quinoline]: the IC50 was at most 100 nM.

As a reminder, the IC50 is the point on the concentration scale where inhibition reaches its midpoint.
